According to patent publication US20260283162A1, “INDOLEACETIC ACID-ENRICHED ALGAE EXTRACT” (FICOSTERRA, S.L., priority 2023, published 2026):
≈ marks a conversion by molar mass, not a printed value.

Experiment: Solubility limit of IAA in water
Format: physicochemical
Conditions: apparent, from the IAA concentration in the aqueous extract

solubility: ~17 µg/mL (≈ 97 µM)
SMILES: O=C(O)Cc1c[nH]c2ccccc12 [IAA, indole-3-acetic acid]
